# Test results published in EP0197661A2, “Low-calorie sugar composition” (Takeda Chemical Industries, Ltd., priority 1985, dated 1986).
# Marks after values point to notes of the source that are not given here.
# System: Male rats (Jcl:SD strain)
# Assay: Oral sucrose loading in fasted rats with varying dosage of AO-128; blood glucose level
# Type: in vivo
# Conditions: rats fasted 20 hours, mean ± standard deviation
# Experimental: Male rats (Jcl:SD strain, purchased from Clea Japan) aged 6 weeks, which had been raised on commercially available pelleted rat chow (CE-2®, Clea Japan), were fasted for 20 hours and, then, administered orally with 2.5 g/kg of sucrose containing a varying dosage of AO-128. The blood glucose level was determined 30, 60 and 120 minutes after administration.
# [1] = AO-128 0.1mg/Kg with 2.5 g/kg sucrose orally
# [2] = AO-128 0.2mg/Kg with 2.5 g/kg sucrose orally
# [3] = AO-128 0.4mg/Kg with 2.5 g/kg sucrose orally
compound,measurement,setting,value
"OCC(CO)N[C@H]1C[C@](O)(CO)[C@@H](O)[C@H](O)[C@H]1O [AO-128, N-(l,3-dihydroxy-2-propyl)valiolamine]",Blood glucose level 0 min.,[1],69 ± 4 mg/dL
same,Blood glucose level 60 min.,[1],101±2^a mg/dℓ
same,Blood glucose level 120 min.,[1],88±3^a mg/dℓ
same,Delta glucose area,[1],52±5^b mg/dℓ·hr
same,Blood glucose level 30 min.,[2],102±6^b mg/dℓ
same,Delta glucose area,[2],38±7^a mg/dℓ·hr
same,Blood glucose level 0 min.,[3],67 ± 4 mg/dL
same,Blood glucose level 30 min.,[3],79±2^a mg/dℓ
same,Blood glucose level 60 min.,[3],77±5^a mg/dℓ
same,Blood glucose level 120 min.,[3],71±5^a mg/dℓ
